Consider 17 compounds from patent US4136196A, “Hypoglycaemically active 2-(phenylalkyl- or -alkenyl hydrazono)-propionic acid derivatives” (Boehringer Mannheim GmbH, priority 1976, dated 1979).

Tested on in one test: not given
Assay: not given
The note with it: in high dosages; literature; cited from earlier work.
Take `NNCCc1ccccc1` [Phenelzine, 2-phenylethyl-hydrazine, reference compound]: the hypoglycaemic activity entry is given as “can be hypoglycaemically active in high dosages”. Regarding `CC(NN)c1ccccc1` (centres unmarked) [mebanazine, 1-phenylethyl-hydrazine], the hypoglycaemic activity entry was “can be hypoglycaemically active in high dosages”.

The subject of a further test is MAO. In words: Measuring of the MAO activity in vitro (kynuramine substrate, unrefined guinea pig liver or brain preparation). The class given is biochemical. The conditions noted are these: 360 mμ, read-out: Concentration for 50% MAO Inhibitions. Here is the method: In order to illustrate the pharmacological properties of the compounds according to the invention, the blood sugarlowering effect and the monoaminoxidase (MAO) inhibition were determined and compared with some corresponding hydrazines.
An unrefined MAO preparation is obtained by comminution of guinea pig liver or brain with the Ultraturrax and subsequent centrifuging at about 10,000 g. The liquid contains the MAO portion dissolved in the cytoplasm and is used for the activity measurements. As substrate there is used kynuramine whose oxidative decomposition by the MAO can be directly observed at 360 m μ in the photometer. The extinction decrease per time unit is a measure of the enzyme activity.
On to `CC(=NNCCc1ccccc1)C(=O)O` [2-(phenethylhydrazono)-propionic acid, 2-(Phenethylhydrazono)-propionic acid], for which the IC50 is 600 µM.

`NNCCc1ccccc1` [Phenelzine, 2-phenylethyl-hydrazine, reference compound]: the IC50 was determined as 0.4 µM.

Another test relates to blood glucose. Kind of test: Blood sugar tests: hypoglycaemic activity in fasting guinea pigs, i.p. It counts as in vivo, guinea pig. The note with it: Cavia porcellus, ip, read-out: Threshold i.p. Dosage for Hypoglycaemic Activity in Testing Guinea Pigs. Here is the method: In order to illustrate the pharmacological properties of the compounds according to the invention, the blood sugarlowering effect and the monoaminoxidase (MAO) inhibition were determined and compared with some corresponding hydrazines. […] Metabolically healthy, cross-bred, fasting guinea pigs were injected with the substances as aqueous solutions of their sodium salts, i.p. A control group receives equivalent amounts of an isotonic NaCl solution. Directly before, as well as in hourly intervals up to the fourth hour after the […], 10 μl blood are taken from an ear border vein and the blood glucose is determined by means of the trouble-free and specific hexokinase technique.
With `NNCCc1ccccc1` [Phenelzine, 2-phenylethyl-hydrazine, reference compound], the minimal effective dose was at least 50 mg/kg. In the case of `CC(=NNCCc1cccc(Br)c1)C(=O)[O-].[Na+]` [sodium 2-(3-bromophenethylhydrazono)-propionate], the minimal effective dose was in the range of 25 to 50 mg/kg.

With `CC(=NNCCCc1ccccc1)C(=O)[O-].[Na+]` [Sodium 2-(3-phenylpropylhydrazono)-propionate], the minimal effective dose was found to be 35 mg/kg. Take `CC(=NNCC=Cc1ccccc1)C(=O)[O-].[Na+]` [Sodium-2-(cinnamylhydrazono)-propionate, sodium 2-(cinnamylhydrazono)-propionate]: the minimal effective dose was determined as 15 mg/kg. `COc1ccccc1CCNN=C(C)C(=O)[O-].[Na+]` [sodium 2-(2-methoxyphenethylhydrazono)-propionate]: the minimal effective dose amounted to 25 mg/kg.

The test is the same for the next values; noted with them: Cavia porcellus, ip; fasting guinea pigs, i.p., aqueous solutions of sodium salts; dosage which significantly lowers blood glucose versus control, up to fourth hour; read-out: Threshold i.p. Dosage for Hypoglycaemic Activity in Testing Guinea Pigs.
As to `CC(=NNCCc1ccccc1)C(=O)O` [2-(phenethylhydrazono)-propionic acid, 2-(Phenethylhydrazono)-propionic acid], the minimal effective dose was 15 mg/kg. Take `COc1ccc(CCNN=C(C)C(=O)O)cc1` [2-(4-methoxyphenethylhydrazono)-propionic acid]: the minimal effective dose came out at 50 mg/kg. `CC(=NNCCc1ccc(Cl)cc1)C(=O)O` [2-(4-chlorophenethylhydrazono)-propionic acid]: the minimal effective dose was found to be 25 mg/kg. The same measure, in the same setting: the result for `CC(=NNCCc1ccccc1C)C(=O)O` [2-(2-methylphenethylhydrazono)-propionic acid] reads 50 mg/kg; that for `CC(=NNCCc1ccc(F)cc1)C(=O)O` [2-(4-fluorophenethylhydrazono)-propionic acid], 25 mg/kg; that for `CCOC(=O)C(C)=NNCCc1ccccc1` [Ethyl 2-(phenethylhydrazono)-propionate], 25 mg/kg. `COC(=O)C(C)=NNCCc1ccccc1` [Methyl 2-(phenethylhydrazono)-propionate]: the minimal effective dose came to 50 mg/kg. On to `CC(=NNCCc1ccccc1)C(N)=O` [2-(phenethylhydrazono)-propionamide], for which the minimal effective dose stood at 50 mg/kg. For `CC(=NNCCc1ccc(C)cc1)C(=O)O` [2-[2-(p-tolyl)-ethylhydrazono]-propionic acid], the minimal effective dose was 50 mg/kg.

The test is the same for the next values; noted with them: fasting guinea pigs, i.p., aqueous solutions of sodium salts; dosage which significantly lowers blood glucose versus control, up to fourth hour.
In the case of “sodium 2-(β-methylcinnamylhydrazono)-propionate”, the “Threshold i.p. Dosage for Hypoglycaemic Activity in Testing Guinea Pigs” value is reported as 10 mg/kg. Regarding “3-phenyl-propen-2-yl--hydrazin-hydrochloride [reference compound]”, the “Threshold i.p. Dosage for Hypoglycaemic Activity in Testing Guinea Pigs” value is given as above 50 mg/kg.
